Measured values as given in patent US8110543B2, “Anti-invasive and anti-angiogenic compositions” (Angstrom Pharmaceuticals, Inc., priority 1997, dated 2012).
“Also recorded” adds a separate entry of the source.

Legend:
[1] = tested on: human prostate cancer line PC-3; experiment: Matrigel invasion assay, PC-3 cells; type: cell-based; details: 5 μM (FIG. 1, FIG. 2)
Procedure: (§1) Several peptides were tested for anti-invasive capacity in a Matrigel® invasion assay system as indicated above (Kleinman et al., supra; Parish et al., supra). Several invasive human tumor lines (PC-3, MDA-MB-231) and non-human tumors (3LL, Mat B-III) were examined. The rat breast cancer line Mat B III and the human prostate cancer line PC-3 were initially used.
(§2) Tumor cells (5×10^5/mL, in a volume of 200 μL) in serum-free RPMI 1640 medium were added to a disposable transwell invasion chamber coated with Matrigel® (Becton Dickinson, Lincoln Park, N.J.). The invasion chambers were placed in 24-well tissue culture plates filled with serum-free RPMI-1640 and the plates were placed in an atmosphere of 5% CO2 in humidified air at 37° C. for 48-72 hours. The chambers were then removed, inverted, and the cells which had invaded (and now appeared on the bottom face of the invasion chamber) were fixed and stained using Diff-Quick® (Scientific Products). Cells were counted in 10 different fields on each filter and an average obtained.

[2] = cynomolgus monkey, in vivo, iv, 37.5 mg/kg
Excerpt: An LC/MS assay developed for the detection of Å6 in plasma has been validated for mouse and monkey plasma.

Mat B-III tumors = experiment: Rat syngeneic Mat B-III breast cancer model; type: in vivo; details: 75 mg/kg/day IP b.i.d.
3LL = experiment: Matrigel invasion assay, 3LL cells; type: cell-based, mouse; details: all the cell lines tested
Procedure: as §1, §2

[3] = tested on: bFGF-induced angiogenesis; experiment: Chick CAM angiogenesis assay; type: in vivo
Procedure: Major vessels were quantitated at this time.
A: Control CAM; B: CAM treated with 1.2 μg/disk of Å6.
Å6 was tested for its effect on bFGF-induced angiogenesis in a 7 day old chick CAM assay.

scuPA-suPAR complex = scuPA-suPAR complex (Homo sapiens, UniProt P00749); experiment: Clot lysis assay ([125I] fibrin clots); type: biochemical; details: 30 minutes after initiation of clot lysis (FIG. 3)
Procedure: Fibrin clots were formed by supplementing plasma with [^125I] fibrinogen. Clotting was initiated by adding thrombin and calcium to the plasma mixture. Clots were washed to remove any free radioactivity, plasminogen and the activator to be tested were added to the clot and the release of [^125I] fibrin degradation products was monitored. The data presented in this figure is at 30 minutes after initiation of clot lysis. scuPA-suPAR: dose response with Å6 on clot lysis by scuPA-suPAR complex; scuPA: dose response on clot lysis by scuPA alone; scuPA/suPAR+scrambled pep: dose response with a scrambled version of Å6 (Ac-[sequence]-Am) (SEQ ID NO: 10).

Acute toxicity in mice = type: in vivo; details: observed for 3 days
Procedure: Acute toxicity was evaluated at three different doses of Å6 (1500 mg/kg, 500 mg/kg and 250 mg/kg). Mice (n=6) were infused (i.v,) with a bolus of Å6 over 5-10 minutes and observed for 3 days.

HUVEC = HUVEC proliferation assay; type: cell-based, human
Procedure: HUVEC were plated on gelatin and allowed to adhere for 4 hrs in the presence of 2% FBS. bFGF (1 ng/mL) and the test compounds were added after 4 hours and the % proliferation (where bFGF induced proliferation was 100% and proliferation in the absence of bFGF was 0) was determined using MTS. FIG. 4: the Å6 (50 μg/mL) concentration was kept constant and the concentration of cisplatin (“CDDP”) was varied; FIG. 5: CDDP was kept constant at a sub-optimal dose (1 μg/mL) and Å6 was varied.
Å6 was tested for its ability to inhibit HUVEC proliferation.

3LL cells = experiment: Tumor angiogenesis (microvessel density) in 3LL model; type: in vivo, Mice; details: 100-250 mg/kg/day; compared to controls
Procedure: Angiogenesis is measured by determining microvessel density using immunostaining for CD31 (also known as platelet-endothelial cell adhesion molecule or PECAM). Results are reported as the average microvessel density of 5 fields each from 5 different sections (Penfold et al., 1996). Typically, the whole tumor is excised, sectioned and the sections examined histologically for microvessel density using appropriate stains or labels for other markers.
Angiogenesis induced by tumor growth and metastasis in vivo is examined in the models systems described above. Mice injected with 3LL cells are treated either with peptide or with vehicle and are sacrificed at various time points. Angiogenesis is assessed by determining microvessel density (MVD) using an antibody specific for microvascular endothelium or other markers of growing blood vessels, such as PECAM (CD31). Such an antibody is employed in conventional immunohistological methods to immunostain tissue sections as described by Penfold et al., supra. A large number of such antibodies is commercially available, for example the JC70 mAb. The MVD are correlated with other measures of tumor behavior including lymph node status and primary tumor size and rate of growth. In humans as reported by Penfold et al., supra, tumor MVD correlates with lymph node metastasis and is independent of tumor size, growth rate or type of histological differentiation.
The compounds are given i.v., i.p., or by osmotic minipump Typical dosages are 100-250 mg/kg/day. At various time points, two animals are sacrificed, and the tumor tissue and surrounding tissue is prepared for histological examination. Results are reported as the average microvessel density of 5 fields each from 5 different sections. The following seven compounds are tested: Ac-[…]-Am (SEQ ID NO:2), Ac-[…]-Am (SEQ ID NO: 6) (disubstitution variant at positions 3 and 4), Ac-[…]-Am (SEQ ID NO: 7) (disubstitution variant at positions 7 and 8), Ac-[…]-Am (SEQ ID NO: 8) (substitution variant at position 1), Ac-PSSPPEE-Am (SEQ ID NO: 4) (deletion variant, position 1 of SEQ ID NO:2 deleted), Ac-KPSSPPE-Am (SEQ ID NO: 5) (deletion variant, position 8 of SEQ ID NO:2 deleted), and Ac-[…]-Am (SEQ ID NO:1).

U87 = experiment: In vitro proliferation, U87 cells; type: cell-based, human
Procedure: (§3) Å6 was also tested for its ability to inhibit the proliferation of cells other than endothelial cells in vitro.
Anti-angiogenic therapy is expected to produce both anti-proliferative and pro-apoptotic effects that would “prime” the tumor chemotherapy with these alkylating agents. The proliferative index in the U87 tumors was evaluated using Ki-67 staining followed by digitization of the staining intensity and quantitation.

[4] = tested on: SMC (aortic smooth muscle cells); experiment: In vitro proliferation, SMC; type: cell-based
Procedure: as §3

scuPA-suPAR = scuPA-suPAR (Homo sapiens, UniProt P00749); experiment: Activation of plasminogen by scuPA-suPAR with small chromogenic substrates; type: biochemical

Substance: Ac-KPSSPPEE-NH2 [Å6, CH3CO-Lys-Pro-Ser-Ser-Pro-Pro-Glu-Glu-NH2]
- in vitro invasion of PC-3 cells in a Matrigel system [1]: inhibited the invasion
- clearance [2]: 0.7 mL/min/kg
- half-life [2]: 24 min
- macroscopic metastasis (number of macroscopic foci) (Mat B-III tumors): continued to be suppressed; also recorded: inhibited
- tumor growth (volume of primary tumor) (Mat B-III tumors): inhibits
- invasion of 3LL cells through Matrigel (3LL): inhibited
- bFGF-induced angiogenesis (major vessel formation) in CAM ([3]; 7 day old chick CAM, 4 days): inhibits angiogenesis
- branching morphogenesis in CAM ([3]; qualitative, stereomicroscopic images): inhibited branching morphogenesis
- scuPA-suPAR mediated clot lysis (scuPA-suPAR complex): inhibits
- overt toxicity (Acute toxicity in mice; 1500, 500 and 250 mg/kg i.v. bolus over 5-10 minutes): No evidence for overt toxicity
- survival after acute dosing (Acute toxicity in mice; 1500, 500 and 250 mg/kg i.v. bolus): all the animals survived
- potentiation of the anti-proliferative activity of cisplatin (CDDP) against endothelial cells (HUVEC; CDDP 1 μg/mL, Å6 varied (FIG. 5)): did not potentiate
- inhibition of HUVEC proliferation (HUVEC; concentrations as high as 312 μg/mL (340 μM), gelatin, 2% FBS): No inhibition
- number of microvessels in the region of the primary tumor (3LL cells): significant reduction
- anti-proliferative effect, U87 (U87): No anti-proliferative effects; also recorded: did not inhibit
- potentiation of the anti-proliferative activity of CDDP against U87 cells (U87): did not potentiate
- potentiation of the pro-apoptotic activity of CDDP (U87): nor did it potentiate
- anti-proliferative effect, SMC [4]: No anti-proliferative effects
- effect on activation of plasminogen by scuPA-suPAR (scuPA-suPAR): did not affect
